Test results reported in US11053230B2, “3-hydroxy-imidazolidin-4-one compounds as inhibitors of indoleamine 2,3-dioxygenase” (Netherlands Translational Research Center B.V., priority 2017, dated 2021).
“And” between values parts separate entries of the source, which are not always exact repeats. Identical values can stand only once.

Biological target: T1, IDO1 (Homo sapiens, UniProt P14902)
T1 construct: Recombinant full-length IDO1 (Seegers, N., et al.) and all other assay components were diluted in IDO1 reaction buffer; made in house
Assay: Biochemical IDO1 assay (NFK GreenScreen)
Settings: for relative activity of the separated isomers: stated in the synthesis examples, assay not named; for IC50: NFK GreenScreen, 25 nM IDO1, 100 μM L-tryptophan, read-out: IC50, inhibitory potency on IDO1
Description: Inhibition of IDO1 activity can be measured by determining the enzymatic conversion of L-tryptophan into N-formylkynurenine (NFK) in a reaction mixture containing IDO1 and test compound. The formation of NFK can be detected directly by, for instance, high-performance liquid chromatography (HPLC) methods, or by intrinsic fluorescence.
Compounds were serially diluted in dimethylsulfoxide (DMSO) and finally in IDO1 reaction buffer, consisting of 50 mM NaH2PO4, pH7.0, supplemented with 0.05% Tween-20 (cat. No. P7949; Sigma Aldrich) and 1% glycerol. Recombinant full-length IDO1 (Seegers, N., et al.) and all other assay components were diluted in IDO1 reaction buffer. […] Subsequently, 10 μl of 0.4 mM of the substrate L-tryptophan was added, i.e., the final concentration of L-tryptophan was 100 μM. The DMSO concentration in the assay was 0.3%. […] Incubation was continued for 60 min at room temperature. Then, 10 μl of NFK Green™ (NTRC, Oss, The Netherlands) was added, the plate was sealed, and the reaction was developed for 3 hours at 37° C. To determine the production of N-formyl kynurenine (NFK), the seal was removed and fluorescence was read on an EnVision multimode reader (Perkin Elmer, Waltham, Mass., USA). IC50 were calculated using XLfit™ software (ID Business Solutions, Ltd., Surrey, U.K.).

T1 sequence (P14902 whole entry): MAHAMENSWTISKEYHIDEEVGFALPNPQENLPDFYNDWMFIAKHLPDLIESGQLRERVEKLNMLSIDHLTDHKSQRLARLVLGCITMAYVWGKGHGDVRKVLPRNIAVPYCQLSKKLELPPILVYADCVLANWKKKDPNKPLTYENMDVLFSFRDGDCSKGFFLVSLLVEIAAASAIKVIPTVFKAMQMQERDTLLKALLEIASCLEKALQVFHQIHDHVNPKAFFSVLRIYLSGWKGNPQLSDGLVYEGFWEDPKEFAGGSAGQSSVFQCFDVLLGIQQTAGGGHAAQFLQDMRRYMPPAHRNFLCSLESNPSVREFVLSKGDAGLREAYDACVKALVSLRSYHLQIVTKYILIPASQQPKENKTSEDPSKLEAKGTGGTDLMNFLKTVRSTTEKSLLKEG

SMILES	relative activity of the separated isomers	IC50
O=C1CN(C(=O)c2c(F)cccc2F)C(c2cc(Br)c(F)s2)N1O (single isomer, unassigned) [Example 110b, 2-(4-Bromo-5-fluoro-2-thienyl)-1-(2,6-difluorobenzoyl)-3-hydroxy-imidazolidin-4-one]	less active isomer	–
O=C1CN(C(=O)c2cccc(Cl)c2Cl)C(c2cc(Br)cs2)N1O (stereo not drawn) [Example 69, 2-(4-Bromo-2-thienyl)-1-(2,3-dichlorobenzoyl)-3-hydroxy-imidazolidin-4-one]	–	≤ 1 µM
O=C1CN(C(=O)c2c(F)cccc2F)C(c2ccc([N+](=O)[O-])s2)N1O (stereo not drawn) [Example 16, 1-(2,6-Difluorobenzoyl)-3-hydroxy-2-(5-nitro-2-thienyl)imidazolidin-4-one]	–	≤ 5 µM and 1 to 5 µM
O=C1CN(Cc2ccccc2F)C(c2ccc(Br)s2)N1O (stereo not drawn) [Example 41, 2-(5-Bromo-2-thienyl)-1-[(2-fluorophenyl)methyl]-3-hydroxy-imidazolidin-4-one]	–	≤ 1 µM
O=C1CN(C(=O)c2c(F)ccc(-c3cccs3)c2F)C(c2cc(Br)cs2)N1O (stereo not drawn) [Example 131, 2-(4-Bromo-2-thienyl)-1-[2,6-difluoro-3-(2-thienyl)benzoyl]-3-hydroxy-imidazolidin-4-one]	–	≤ 1 µM
CSc1ccc(C2N(O)C(=O)CN2C(=O)c2ccccc2F)s1 (stereo not drawn) [Example 13, 1-(2-Fluorobenzoyl)-3-hydroxy-2-(5-methylsulfanyl-2-thienyl)imidazolidin-4-one]	–	≤ 5 µM and 1 to 5 µM
O=C1CN(Cc2ccccc2F)C(c2csc(Br)c2)N1O (stereo not drawn) [Example 42, 2-(5-Bromo-3-thienyl)-1-[(2-fluorophenyl)methyl]-3-hydroxy-imidazolidin-4-one]	–	≤ 1 µM
CS(=O)(=O)Nc1ccc(F)c(C(=O)N2CC(=O)N(O)C2c2cc(Br)cs2)c1F (stereo not drawn) [Example 107, N-[3-[2-(4-bromo-2-thienyl)-3-hydroxy-4-oxo-imidazolidine-1-carbonyl]-2,4-difluoro-phenyl]methanesulfonamide]	–	≤ 1 µM
O=C1CN(C(=O)c2c(F)cc(C#CC3CC3)cc2F)C(c2cc(Br)cs2)N1O (stereo not drawn) [Example 39, 2-(4-Bromo-2-thienyl)-1-[4-(2-cyclopropylethynyl)-2,6-difluoro-benzoyl]-3-hydroxy-imidazolidin-4-one]	–	≤ 1 µM
O=C1CN(C(=O)c2c(F)cccc2F)C(c2ccc(Br)s2)N1O (stereo not drawn) [Example 4, 2-(5-Bromo-2-thienyl)-1-(2,6-difluorobenzoyl)-3-hydroxy-imidazolidin-4-one]	–	≤ 1 µM
O=C1CN(C(=O)c2c(F)cccc2Cl)C(c2csc(Br)c2)N1O (stereo not drawn) [Example 99, 2-(5-Bromo-3-thienyl)-1-(2-chloro-6-fluoro-benzoyl)-3-hydroxy-imidazolidin-4-one]	–	≤ 1 µM
O=C1CN(C(=O)c2c(F)ccc(-c3ccccc3)c2F)C(c2csc(Br)c2)N1O (stereo not drawn) [Example 123, 2-(5-Bromo-3-thienyl)-1-(2,6-difluoro-3-phenyl-benzoyl)-3-hydroxy-imidazolidin-4-one]	–	≤ 1 µM
O=C1CN(C(=O)c2c(F)cc(C#CC3CC3)cc2F)C(c2cc(Br)cs2)N1O (single isomer, unassigned) [Example 47a, 2-(4-Bromo-2-thienyl)-1-[4-(2-cyclopropylethynyl)-2,6-difluoro-benzoyl]-3-hydroxy-imidazolidin-4-one]	less active isomer	≤ 1 µM
O=C1CN(C(=O)c2c(F)ccc(-c3ccc(F)s3)c2F)C(c2cc(Br)cs2)N1O (stereo not drawn) [Example 132, 2-(4-Bromo-2-thienyl)-1-[2,6-difluoro-3-(5-fluoro-2-thienyl)benzoyl]-3-hydroxy-imidazolidin-4-one]	–	≤ 1 µM
O=C1CN(C(=O)c2c(F)ccc(Br)c2F)C(c2cc(Br)cs2)N1O (stereo not drawn) [Example 74, 1-(3-Bromo-2,6-difluoro-benzoyl)-2-(4-bromo-2-thienyl)-3-hydroxy-imidazolidin-4-one]	–	≤ 1 µM
[2H]C([2H])([2H])c1sc(C2N(O)C(=O)CN2C(=O)c2c(F)cccc2F)cc1Br (stereo not drawn) [Example 114, 2-[4-Bromo-5-(trideuteriomethyl)-2-thienyl]-1-(2,6-difluorobenzoyl)-3-hydroxy-imidazolidin-4-one]	–	≤ 1 µM
C#Cc1csc(C2N(O)C(=O)CN2C(=O)c2ccccc2F)c1 (stereo not drawn) [Example 35, 2-(4-Ethynyl-2-thienyl)-1-(2-fluorobenzoyl)-3-hydroxy-imidazolidin-4-one]	–	≤ 5 µM and 1 to 5 µM
CSc1ccc(C2N(O)C(=O)CN2C(=O)c2c(F)cccc2F)s1 (stereo not drawn) [Example 14, 1-(2,6-Difluorobenzoyl)-3-hydroxy-2-(5-methylsulfanyl-2-thienyl)imidazolidin-4-one]	–	≤ 5 µM and 1 to 5 µM

SMILES	relative activity of the separated isomers	IC50
NS(=O)(=O)N1CCC(C(=O)N2CC(=O)N(O)C2c2cc(Br)cs2)CC1 (stereo not drawn) [Example 108, 4-[2-(4-Bromo-2-thienyl)-3-hydroxy-4-oxo-imidazolidine-1-carbonyl]piperidine-1-sulfonamide]	–	≤ 5 µM and 1 to 5 µM
O=C1CN(C(=O)c2c(F)ccc(C(F)(F)F)c2F)C(c2cc(Br)cs2)N1O (stereo not drawn) [Example 76, 2-(4-Bromo-2-thienyl)-1-[2,6-difluoro-3-(trifluoromethyl)benzoyl]-3-hydroxy-imidazolidin-4-one]	–	≤ 1 µM
COc1ccc(F)c(C(=O)N2CC(=O)N(O)C2c2csc(Br)c2)c1F (stereo not drawn) [Example 104, 2-(5-Bromo-3-thienyl)-1-(2,6-difluoro-3-methoxy-benzoyl)-3-hydroxy-imidazolidin-4-one]	–	≤ 1 µM
O=C1CN(C(=O)c2c(F)cccc2F)C(c2csc(Br)c2)N1O (stereo not drawn) [Example 28, 2-(5-Bromo-3-thienyl)-1-(2,6-difluorobenzoyl)-3-hydroxy-imidazolidin-4-one]	–	≤ 1 µM
O=C1CN(C(=O)c2ccc(Cl)cc2Cl)C(c2cc(Br)cs2)N1O (stereo not drawn) [Example 68, 2-(4-Bromo-2-thienyl)-1-(2,4-dichlorobenzoyl)-3-hydroxy-imidazolidin-4-one]	–	≤ 5 µM and 1 to 5 µM
O=C1CN(C(=O)c2c(F)cccc2F)C(c2cc(Br)c(F)s2)N1O (single isomer, unassigned) [Example 110a, 2-(4-Bromo-5-fluoro-2-thienyl)-1-(2,6-difluorobenzoyl)-3-hydroxy-imidazolidin-4-one]	most active isomer	–
O=C1CN(C(=O)c2c(F)cccc2F)C(c2cc(Br)co2)N1O (stereo not drawn) [Example 23, 2-(4-Bromo-2-furyl)-1-(2,6-difluorobenzoyl)-3-hydroxy-imidazolidin-4-one]	–	≤ 5 µM and 1 to 5 µM
Cc1cccc(F)c1C(=O)N1CC(=O)N(O)C1c1cc(Br)cs1 (stereo not drawn) [Example 65, 2-(4-Bromo-2-thienyl)-1-(2-fluoro-6-methyl-benzoyl)-3-hydroxy-imidazolidin-4-one]	–	≤ 1 µM
C[C@@H](c1ccccc1)N1CC(=O)N(O)C1c1ccc(Br)s1 (single isomer, unassigned) [Example 120a]	less active isomer	–
O=C1CN(C(=O)c2c(F)c(F)c(F)c(F)c2F)C(c2cc(Br)cs2)N1O (stereo not drawn) [Example 63, 2-(4-Bromo-2-thienyl)-3-hydroxy-1-(2,3,4,5,6-pentafluorobenzoyl)imidazolidin-4-one]	–	≤ 1 µM
O=C1CN(C(=O)c2c(F)cccc2F)C(c2csc(Br)c2)N1O (single isomer, unassigned) [Example 46b, 2-(5-Bromo-3-thienyl)-1-(2,6-difluorobenzoyl)-3-hydroxy-imidazolidin-4-one]	most active isomer	≤ 1 µM
Cc1ccccc1-c1ccc(F)c(C(=O)N2CC(=O)N(O)C2c2cc(Br)cs2)c1F (stereo not drawn) [Example 133, 2-(4-Bromo-2-thienyl)-1-[2,6-difluoro-3-(o-tolyl)benzoyl]-3-hydroxy-imidazolidin-4-one]	–	≤ 1 µM
O=C1CN(C(=O)c2c(F)cccc2F)C(c2cc(Br)c(Cl)s2)N1O (stereo not drawn) [Example 115, 2-(4-Bromo-5-chloro-2-thienyl)-1-(2,6-difluorobenzoyl)-3-hydroxy-imidazolidin-4-one]	–	≤ 1 µM
COc1ccc(F)c(C(=O)N2CC(=O)N(O)C2c2cc(Br)cs2)c1F (stereo not drawn) [Example 75, 2-(4-Bromo-2-thienyl)-1-(2,6-difluoro-3-methoxy-benzoyl)-3-hydroxy-imidazolidin-4-one]	–	≤ 1 µM
O=C1CN(C(=O)c2c(F)ccc(-c3ccc(F)cc3)c2F)C(c2cc(Br)cs2)N1O (stereo not drawn) [Example 136, 2-(4-Bromo-2-thienyl)-1-[2,6-difluoro-3-(4-fluorophenyl)benzoyl]-3-hydroxy-imidazolidin-4-one]	–	≤ 1 µM
C[C@@H](c1ccccc1)N1CC(=O)N(O)C1c1cc(I)cs1 (single isomer, unassigned) [Example 119b]	most active isomer	≤ 1 µM
O=C1CN(C(=O)c2c(F)cccc2F)C(c2nc(Br)cs2)N1O (stereo not drawn) [Example 22, 2-(4-Bromothiazol-2-yl)-1-(2,6-difluorobenzoyl)-3-hydroxy-imidazolidin-4-one]	–	≤ 5 µM and 1 to 5 µM
CS(=O)(=O)c1ccc(-c2ccc(C(=O)N3CC(=O)N(O)C3c3cc(Br)cs3)cc2)cc1 (stereo not drawn) [Example 71, 2-(4-Bromo-2-thienyl)-3-hydroxy-1-[4-(4-methylsulfonylphenyl)benzoyl]imidazolidin-4-one]	–	≤ 5 µM and 1 to 5 µM
